Test system: 521955-158-R2-J5-PDC complex spheroid viability
Assay: Anticancer human tumor 521955-158-R2-J5-PDC patient-derived pancreatic carcinoma cell line growth inhibition [GQUAD]
Settings: for IC50: curve of first compound; for viability, T/C: stronger effect = lower value
Outline: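 Viability of tumor cells grown as complex spheroids with endothelial and stromal cells, exposed to drug combinations. Top concentration at or near clinical Cmax (else 10 microM), diluted in half-log increments.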

[1] = second compound 0.0316 µM, first compound 0.0316 µM
[2] = second compound 0.0316 µM, first compound 0.1 µM
[3] = second compound 0.0316 µM, first compound 0.316 µM
[4] = second compound 0.0316 µM, first compound 1 µM
[5] = second compound 0.0316 µM, first compound 3.16 µM
[6] = second compound 0.0316 µM, first compound 10 µM
[7] = second compound 0.1 µM, first compound 0.0316 µM
[8] = second compound 0.1 µM, first compound 0.1 µM
[9] = second compound 0.1 µM, first compound 0.316 µM
[10] = second compound 0.1 µM, first compound 1 µM
[11] = second compound 0.1 µM, first compound 3.16 µM
[12] = second compound 0.1 µM, first compound 10 µM
[13] = second compound 0.316 µM, first compound 0.0316 µM
[14] = second compound 0.316 µM, first compound 0.1 µM
[15] = second compound 0.316 µM, first compound 0.316 µM
[16] = second compound 0.316 µM, first compound 1 µM
[17] = second compound 0.316 µM, first compound 3.16 µM
[18] = second compound 0.316 µM, first compound 10 µM
[19] = second compound 1 µM, first compound 0.0316 µM
[20] = second compound 1 µM, first compound 0.1 µM
[21] = second compound 1 µM, first compound 0.316 µM
[22] = second compound 1 µM, first compound 1 µM
[23] = second compound 1 µM, first compound 3.16 µM
[24] = second compound 1 µM, first compound 10 µM
[25] = second compound 3.16 µM, first compound 0.0316 µM
[26] = second compound 3.16 µM, first compound 0.1 µM
[27] = second compound 3.16 µM, first compound 0.316 µM
[28] = second compound 3.16 µM, first compound 1 µM
[29] = second compound 3.16 µM, first compound 3.16 µM
[30] = second compound 3.16 µM, first compound 10 µM
[31] = second compound 10 µM, first compound 0.0316 µM
[32] = second compound 10 µM, first compound 0.1 µM
[33] = second compound 10 µM, first compound 0.316 µM
[34] = second compound 10 µM, first compound 1 µM
[35] = second compound 10 µM, first compound 3.16 µM
[36] = second compound 10 µM, first compound 10 µM
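Note: spheroids exposed to agents for one week before reading.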
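Throughout, for viability, T/C: 100% = DMSO vehicle control viability.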

`COc1cc(C2c3cc4c(cc3C(OC3OC5COC(C)OC5C(O)C3O)C3COC(=O)C23)OCO4)cc(OC)c1O` (stereo not drawn) + Cc1cnc(CNC(=O)c2c(=O)c3ccc(N4CCCN(C)CC4)nc3n3c2sc2ccccc23)cn1 gave an IC50 (second compound 0.0316 µM) of 241 nM, an IC50 (second compound 0.1 µM) of 340 nM and an IC50 (second compound 0.316 µM) of less than 31.6 nM. For the same molecule, the IC50 (second compound 1 µM) was less than 31.6 nM, the IC50 (second compound 3.16 µM) was less than 31.6 nM and the IC50 (second compound 10 µM) was less than 31.6 nM. For the same molecule, the viability, T/C [1] was 84.4%, the viability, T/C [2] was 70.8% and the viability, T/C [3] was 42.8%. The viability, T/C [4] was 23.2%, the viability, T/C [5] was 12.1% and the viability, T/C [6] was 9.69%. For the same molecule, the viability, T/C [7] was 59.2%, the viability, T/C [8] was 55.3% and the viability, T/C [9] was 49.3%. It also gave a viability, T/C [10] of 37.8%, a viability, T/C [11] of 16% and a viability, T/C [12] of 11%. It also gave a viability, T/C [13] of 45.2%, a viability, T/C [14] of 42.2% and a viability, T/C [15] of 36.5%. It also gave a viability, T/C [16] of 19.8%, a viability, T/C [17] of 14% and a viability, T/C [18] of 12.1%. It also gave a viability, T/C [19] of 23.2%, a viability, T/C [20] of 28.4% and a viability, T/C [21] of 19.2%. The viability, T/C [22] was 17.4%, the viability, T/C [23] was 10.3% and the viability, T/C [24] was 10.2%. The viability, T/C [25] was 19.2%, the viability, T/C [26] was 18% and the viability, T/C [27] was 19.6%. It also gave a viability, T/C [28] of 17%, a viability, T/C [29] of 6.27% and a viability, T/C [30] of 8.61%. It also gave a viability, T/C [31] of 15.6%, a viability, T/C [32] of 17.8% and a viability, T/C [33] of 18.8%. The viability, T/C [34] was 16.7%, the viability, T/C [35] was 10.2% and the viability, T/C [36] was 8.93%.

In the case of `COc1cccc2c1C(=O)c1c(O)c3c(c(O)c1C2=O)CC(O)(C(=O)CO)CC3OC1CC(N)C(O)C(C)O1` (stereo not drawn) + Cc1cnc(CNC(=O)c2c(=O)c3ccc(N4CCCN(C)CC4)nc3n3c2sc2ccccc23)cn1, the IC50 (second compound 0.0316 µM) is reported as 113 nM, the IC50 (second compound 0.1 µM) is reported as 127 nM and the IC50 (second compound 0.316 µM) is reported as less than 31.6 nM. The IC50 (second compound 1 µM) was less than 31.6 nM, the IC50 (second compound 3.16 µM) was less than 31.6 nM and the IC50 (second compound 10 µM) was less than 31.6 nM. It also gave a viability, T/C [1] of 78.2%, a viability, T/C [2] of 48% and a viability, T/C [3] of 38.4%. The viability, T/C [4] was 10.9%, the viability, T/C [5] was 4.19% and the viability, T/C [6] was 0.5%. For the same molecule, the viability, T/C [7] was 53.3%, the viability, T/C [8] was 59.6% and the viability, T/C [9] was 26.3%. The viability, T/C [10] was 10.6%, the viability, T/C [11] was 1.38% and the viability, T/C [12] was 0.74%. For the same molecule, the viability, T/C [13] was 36.3%, the viability, T/C [14] was 37.1% and the viability, T/C [15] was 20.9%. For the same molecule, the viability, T/C [16] was 8.92%, the viability, T/C [17] was 0.18% and the viability, T/C [18] was 0.39%. For the same molecule, the viability, T/C [19] was 20.7%, the viability, T/C [20] was 20.1% and the viability, T/C [21] was 14.5%. The viability, T/C [22] was 8.17%, the viability, T/C [23] was 0.08% and the viability, T/C [24] was 0.07%. The viability, T/C [25] was 18.5%, the viability, T/C [26] was 18.4% and the viability, T/C [27] was 15%. For the same molecule, the viability, T/C [28] was 5.89%, the viability, T/C [29] was 0.12% and the viability, T/C [30] was 0.13%. For the same molecule, the viability, T/C [31] was 18.4%, the viability, T/C [32] was 14.4% and the viability, T/C [33] was 16.2%. It also gave a viability, T/C [34] of 4.97%, a viability, T/C [35] of 0.21% and a viability, T/C [36] of 0.19%.

Work on `Nc1ccn(C2OC(CO)C(O)C2(F)F)c(=O)n1` (stereo not drawn) + Cc1cnc(CNC(=O)c2c(=O)c3ccc(N4CCCN(C)CC4)nc3n3c2sc2ccccc23)cn1 yielded an IC50 (second compound 0.0316 µM) of 159 nM, an IC50 (second compound 0.1 µM) of 85.7 nM and an IC50 (second compound 0.316 µM) of less than 31.6 nM. It also gave an IC50 (second compound 1 µM) of less than 31.6 nM, an IC50 (second compound 3.16 µM) of less than 31.6 nM and an IC50 (second compound 10 µM) of less than 31.6 nM. The viability, T/C [1] was 67.4%, the viability, T/C [2] was 63.6% and the viability, T/C [3] was 30.6%. For the same molecule, the viability, T/C [4] was 12.9%, the viability, T/C [5] was 8.38% and the viability, T/C [6] was 8.43%. The viability, T/C [7] was 57.4%, the viability, T/C [8] was 51.2% and the viability, T/C [9] was 29%. For the same molecule, the viability, T/C [10] was 20.9%, the viability, T/C [11] was 7.8% and the viability, T/C [12] was 7.55%. For the same molecule, the viability, T/C [13] was 36%, the viability, T/C [14] was 27.7% and the viability, T/C [15] was 20.9%. The viability, T/C [16] was 12.8%, the viability, T/C [17] was 9.07% and the viability, T/C [18] was 7.49%. The viability, T/C [19] was 20.2%, the viability, T/C [20] was 19.9% and the viability, T/C [21] was 15.2%. For the same molecule, the viability, T/C [22] was 9.52%, the viability, T/C [23] was 9.75% and the viability, T/C [24] was 8.51%. The viability, T/C [25] was 16%, the viability, T/C [26] was 17.8% and the viability, T/C [27] was 15.9%. The viability, T/C [28] was 8.29%, the viability, T/C [29] was 4.92% and the viability, T/C [30] was 2.37%. The viability, T/C [31] was 17%, the viability, T/C [32] was 15.7% and the viability, T/C [33] was 15.1%. The viability, T/C [34] was 6.25%, the viability, T/C [35] was 4.12% and the viability, T/C [36] was 5.49%.

In the case of `O=c1[nH]cc(F)c(=O)[nH]1` + Cc1cnc(CNC(=O)c2c(=O)c3ccc(N4CCCN(C)CC4)nc3n3c2sc2ccccc23)cn1, the IC50 (second compound 0.0316 µM) is reported as 1190 nM, the IC50 (second compound 0.1 µM) is reported as 1540 nM and the IC50 (second compound 0.316 µM) is reported as less than 31.6 nM. It also gave an IC50 (second compound 1 µM) of less than 31.6 nM, an IC50 (second compound 3.16 µM) of less than 31.6 nM and an IC50 (second compound 10 µM) of less than 31.6 nM. The viability, T/C [1] was 88.7%, the viability, T/C [2] was 70.5% and the viability, T/C [3] was 76.8%. For the same molecule, the viability, T/C [4] was 51.6%, the viability, T/C [5] was 31.6% and the viability, T/C [6] was 16.7%. For the same molecule, the viability, T/C [7] was 65.2%, the viability, T/C [8] was 56.2% and the viability, T/C [9] was 56.5%. The viability, T/C [10] was 62.2%, the viability, T/C [11] was 33.4% and the viability, T/C [12] was 22.4%. The viability, T/C [13] was 36.7%, the viability, T/C [14] was 56.3% and the viability, T/C [15] was 30.3%. The viability, T/C [16] was 31%, the viability, T/C [17] was 20.2% and the viability, T/C [18] was 17.8%. The viability, T/C [19] was 23.2%, the viability, T/C [20] was 22.5% and the viability, T/C [21] was 20.1%. For the same molecule, the viability, T/C [22] was 16.6%, the viability, T/C [23] was 17.8% and the viability, T/C [24] was 14.1%. For the same molecule, the viability, T/C [25] was 18.1%, the viability, T/C [26] was 19.5% and the viability, T/C [27] was 17.8%. The viability, T/C [28] was 19.1%, the viability, T/C [29] was 17% and the viability, T/C [30] was 11.7%. It also gave a viability, T/C [31] of 18.7%, a viability, T/C [32] of 21.7% and a viability, T/C [33] of 17.3%. It also gave a viability, T/C [34] of 14.2%, a viability, T/C [35] of 15.5% and a viability, T/C [36] of 12.1%.

— PubChem BioAssay AID2060495 (Molecular Pharmacology Branch, DTP, NCI, 2025)
